Holding throughout (assay): AK assay 384-well format, Prestwick library screening
In experiment [1] the test system is E. faecium. The format is cell-based, Enterococcus faecium. To be noted: for fold induction at 50 µM: Enterococcus faecium, 3 h.
For experiment [2], the system named is S. aureus strain USA300-0114. The format is cell-based, Staphylococcus aureus. The settings on record: for fold induction at 50 µM: Staphylococcus aureus, USA300, 3 h.
The subject of experiment [3] is K. pneumoniae. The format is cell-based, Klebsiella pneumoniae. To be noted: for fold induction at 50 µM: Klebsiella pneumoniae, 3 h.
Experiment [4] has as its system A. baumannii strain 98-37-09. The format is cell-based, Acinetobacter baumannii. The settings on record: for fold induction at 50 µM: Acinetobacter baumannii, 983709, 3 h.
Experiment [5] concerns P. aeruginosa. The format is cell-based, Pseudomonas aeruginosa. To be noted: for fold induction at 50 µM: Pseudomonas aeruginosa, 3 h.
Experiment [6] concerns E. cloacae. The format is cell-based, Enterobacter cloacae. The settings on record: for fold induction at 50 µM: Enterobacter cloacae, 3 h.
Experiment [7] relates to E. coli. The format is cell-based, Escherichia coli. To be noted: for fold induction at 50 µM: Escherichia coli, 3 h.
The mark [8] stands for this setting: 50 μM final drug concentration, cutoff for positive-scoring molecules 3-fold increase, read-out: AK-based Prestwick Library Screening Results, E. faecium (fold increase in extracellular AK activity).
Setting [9] is: 50 μM final drug concentration, cutoff for positive-scoring molecules 3-fold increase, read-out: AK-based Prestwick Library Screening Results, S. aureus (fold increase in extracellular AK activity).
Setting [10] is: 50 μM final drug concentration, cutoff for positive-scoring molecules 3-fold increase, read-out: AK-based Prestwick Library Screening Results, K. pneumoniae (fold increase in extracellular AK activity).
Where [11] appears, read: 50 μM final drug concentration, cutoff for positive-scoring molecules 3-fold increase, read-out: AK-based Prestwick Library Screening Results, A. baumannii (fold increase in extracellular AK activity).
Where [12] appears, read: 50 μM final drug concentration, cutoff for positive-scoring molecules 3-fold increase, read-out: AK-based Prestwick Library Screening Results, P. aeruginosa (fold increase in extracellular AK activity).
The mark [13] stands for this setting: 50 μM final drug concentration, cutoff for positive-scoring molecules 3-fold increase, read-out: AK-based Prestwick Library Screening Results, E. cloacae (fold increase in extracellular AK activity).
Where [14] appears, read: 50 μM final drug concentration, cutoff for positive-scoring molecules 3-fold increase, read-out: AK-based Prestwick Library Screening Results, E. coli (fold increase in extracellular AK activity).
[15] abbreviates: 50 μM final drug concentration, planktonic, […].

Structures are written as SMILES. Structures can show the parent of a compound that is named as a salt. Where two headings read alike, the source gives them in different places.

As to `O=C(O)c1cc(-c2ccc(F)cc2F)ccc1O` [Diflunisal], the fold induction at 50 µM in experiment [1] (50 μM final drug concentration, 384-well format, […], read-out: AK-based Prestwick Library Screening Results, E. faecium (increase in extracellular AK activity)) came to 0.9; in experiment [2] (50 μM final drug concentration, 384-well format, […], read-out: AK-based Prestwick Library Screening Results, S. aureus (increase in extracellular AK activity)) it was 0.6; in experiment [3] (50 μM final drug concentration, 384-well format, […], read-out: AK-based Prestwick Library Screening Results, K. pneumoniae (increase in extracellular AK activity)) it was 0.6; in experiment [4] (50 μM final drug concentration, 384-well format, […], read-out: AK-based Prestwick Library Screening Results, A. baumannii (increase in extracellular AK activity)), 0.7; in experiment [5] (50 μM final drug concentration, 384-well format, […], read-out: AK-based Prestwick Library Screening Results, P. aeruginosa (increase in extracellular AK activity)), 0.6; in experiment [6] (50 μM final drug concentration, 384-well format, […], read-out: AK-based Prestwick Library Screening Results, E. cloacae (increase in extracellular AK activity)) it was 1.2. The fold induction at 50 µM in experiment [7] (50 μM final drug concentration, 384-well format, […], read-out: AK-based Prestwick Library Screening Results, E. coli (increase in extracellular AK activity)) came to 0.7.
In the case of `CCOC(=O)[N-]c1cn(N2CCOCC2)n[o+]1` [Molsidomine], the fold induction at 50 µM turned out to be 0.9 in experiment [1] (50 μM final drug concentration, planktonic, cutoff for positive 3-fold increase, read-out: AK-based Prestwick Library Screening Results, E. faecium (fold increase in extracellular AK activity)); 0.9 in experiment [2] (50 μM final drug concentration, planktonic, cutoff for positive 3-fold increase, read-out: AK-based Prestwick Library Screening Results, S. aureus (fold increase in extracellular AK activity)); 1 in experiment [3] (50 μM final drug concentration, planktonic, cutoff for positive 3-fold increase, read-out: AK-based Prestwick Library Screening Results, K. pneumoniae (fold increase in extracellular AK activity)); 1.2 in experiment [4] (50 μM final drug concentration, planktonic, cutoff for positive 3-fold increase, read-out: AK-based Prestwick Library Screening Results, A. baumannii (fold increase in extracellular AK activity)); 1.1 in experiment [5] (50 μM final drug concentration, planktonic, cutoff for positive 3-fold increase, read-out: AK-based Prestwick Library Screening Results, P. aeruginosa (fold increase in extracellular AK activity)); 1.5 in experiment [6] (50 μM final drug concentration, planktonic, cutoff for positive 3-fold increase, read-out: AK-based Prestwick Library Screening Results, E. cloacae (fold increase in extracellular AK activity)). Further, in experiment [7] (50 μM final drug concentration, planktonic, cutoff for positive 3-fold increase, read-out: AK-based Prestwick Library Screening Results, E. coli (fold increase in extracellular AK activity)), the fold induction at 50 µM came out at 1.4.
`O=C(O)CN(CCN(CC(=O)O)CC(=O)O)CCN(CC(=O)O)CC(=O)O` [Pentetic acid]: the fold induction at 50 µM in experiment [1] (setting [8]) came to 1; in experiment [2] (setting [9]), 1.4; in experiment [3] (setting [10]) it was 1.1; in experiment [4] (setting [11]) it was 1.3; in experiment [5] (setting [12]) it was 1.2; in experiment [6] (setting [13]), 1.5. Further, the fold induction at 50 µM in experiment [7] (setting [14]) is 1.3.
Turning to `CC(N)C(O)c1ccccc1` (stereo not drawn) [Phenylpropanolamine hydrochloride], the fold induction at 50 µM in experiment [1] (read-out: AK-based Prestwick Library Screening Results: E. faecium (increase in extracellular AK activity)) is 0.8; in experiment [2] (read-out: AK-based Prestwick Library Screening Results: S. aureus (increase in extracellular AK activity)), 0.3; in experiment [3] (read-out: AK-based Prestwick Library Screening Results: K. pneumoniae (increase in extracellular AK activity)) it was 0.5; in experiment [4] (read-out: AK-based Prestwick Library Screening Results: A. baumannii (increase in extracellular AK activity)) it was 0.4; in experiment [5] (read-out: AK-based Prestwick Library Screening Results: P. aeruginosa (increase in extracellular AK activity)), 0.4; in experiment [6] (read-out: AK-based Prestwick Library Screening Results: E. cloacae (increase in extracellular AK activity)), 0.4. Also, in experiment [7] (read-out: AK-based Prestwick Library Screening Results: E. coli (increase in extracellular AK activity)), the fold induction at 50 µM is 0.5.
As to `C[C@H]1O[C@@H](O[C@H]2CC[C@]3(C=O)[C@H]4CC[C@]5(C)[C@@H](C6=CC(=O)OC6)CC[C@]5(O)[C@@H]4CC[C@]3(O)C2)C[C@H](O)[C@@H]1O` [Helveticoside], in experiment [1] (setting [15]), the “AK-based Prestwick Library Screening Results, E. faecium (fold increase in extracellular AK activity)” value was 0.9. Also, the “AK-based Prestwick Library Screening Results, S. aureus (fold increase in extracellular AK activity)” value in experiment [2] (setting [15]) came out at 0.4. Further, in experiment [3] (setting [15]), the “AK-based Prestwick Library Screening Results, K. pneumoniae (fold increase in extracellular AK activity)” value is reported as 0.5. For the same molecule, the “AK-based Prestwick Library Screening Results, A. baumannii (fold increase in extracellular AK activity)” value in experiment [4] (setting [15]) is given as 0.4. Besides, the “AK-based Prestwick Library Screening Results, P. aeruginosa (fold increase in extracellular AK activity)” value in experiment [5] (setting [15]) is reported as 0.4. Besides, in experiment [6] (setting [15]), the “AK-based Prestwick Library Screening Results, E. cloacae (fold increase in extracellular AK activity)” value turned out to be 0.4. Moreover, the “AK-based Prestwick Library Screening Results, E. coli (fold increase in extracellular AK activity)” value in experiment [7] (setting [15]) was 0.5.
`C=C1C[C@]23C[C@@]1(O)CC[C@H]2[C@@]12C=C[C@H](O)[C@@](C)(C(=O)O1)[C@H]2[C@@H]3C(=O)O` [Gibberellic acid]: the fold induction at 50 µM was found to be 0.8 in experiment [1] (setting [8]); 0.4 in experiment [2] (setting [9]); 0.5 in experiment [3] (setting [10]); 0.4 in experiment [4] (setting [11]); 0.4 in experiment [5] (setting [12]); 0.4 in experiment [6] (setting [13]). For the same molecule, the fold induction at 50 µM in experiment [7] (setting [14]) amounted to 0.5.

Source of the values: US10004701B2, “Methods and compositions for treating infection” (UNIVERSITY OF ROCHESTER, priority 2012, dated 2018).
